Legend:
Assay type in all cases: in vivo
[1] = system: velvetleaf (Abutilon theophrasti); test: Test A pre/postemergence
In short: (§1)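 Visual injury scores on a 0–100 scale, 100 being complete control, were assigned roughly ten days after treatment by comparison with untreated greenhouse controls. Test chemicals, formulated with surfactant in non-phytotoxic solvent, were sprayed onto soil preemergence and onto 1–2-leaf plants 2–10 cm tall postemergence.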

[2] = system: barnyardgrass (Echinochloa crus-galli); test: Test A pre/postemergence
In short: as §1

[3] = system: redroot pigweed (Amaranthus retroflexus); test: Test A pre/postemergence
In short: as §1

[4] = system: crabgrass (Digitaria sanguinalis); test: Test A pre/postemergence
In short: as §1

[5] = system: giant foxtail (Setaria faberi); test: Test A pre/postemergence
In short: as §1

[6] = system: morningglory (Ipomoea spp.); test: Test A pre/postemergence
In short: as §1

[7] = system: barnyardgrass (Echinochloa crus-galli); test: Test B flooded paddy test; details: Flood, scale 0 to 100
Procedure: (§2) At the same time, plants selected from these crop and weed species and also blackgrass (Alopecurus myosuroides) and wild oat (Avena fatua) were treated with postemergence applications of test chemicals formulated in the same manner. Plants ranged in height from 2 to 18 cm (1- to 4-leaf stage) for postemergence treatments. Plant species in the flooded paddy test consisted of rice (Oryza sativa), umbrella sedge (Cyperus difformis), duck salad (Heteranthera limosa) and barnyardgrass (Echinochloa crus-galli) grown to the 2-leaf stage for testing. Treated plants and controls were maintained in a greenhouse for 13 to 15 days, after which time all species were compared to controls and visually evaluated. Plant response ratings, summarized in Table B, are based on a scale of 0 to 100 where 0 is no effect and 100 is complete control. A dash (-) response means no test result.

rice (Oryza sativa) = test: Test B flooded paddy test; details: Flood, scale 0 to 100
Procedure: as §2

[8] = system: umbrella sedge (Cyperus difformis); test: Test B flooded paddy test; details: Flood, scale 0 to 100
Procedure: as §2

[9] = system: duck salad (Heteranthera limosa); test: Test B flooded paddy test; details: Flood, scale 0 to 100
Procedure: as §2

[10] = system: barnyardgrass (Echinochloa crus-galli); test: Test E flooded paddy water application; details: Flood, 21 days, scale 0 to 100 (0 no effect, 100 complete control)
In short: (§3)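 Weeds sown in sterilized Tama silt loam (2.6% organic matter), greenhouse 29.5/26.7° C, 16-h photoperiod; at 2.0–2.5-leaf stage pots flooded to 3 cm and compound added to paddy water. Visual rating vs untreated controls after 21 days, 0 (no effect) to 100 (complete control).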

[11] = system: junglerice (Echinochloa colona); test: Test E flooded paddy water application; details: Flood, 21 days, scale 0 to 100 (0 no effect, 100 complete control)
In short: as §3

[12] = system: late watergrass (Echinochloa oryzicola); test: Test E flooded paddy water application; details: Flood, 21 days, scale 0 to 100 (0 no effect, 100 complete control)
In short: as §3

[13] = system: transplanted rice seedlings (Oryza sativa cv. ‘Japonica-M202’); test: Test E flooded paddy water application; details: Flood, 21 days, scale 0 to 100 (0 no effect, 100 complete control)
In short: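 Response scored visually on a 0–100 scale (100 = complete control) at 21 days against untreated pots. Treatment was into paddy water 3 cm deep over silt loam, with plants at the 2.0–2.5-leaf stage, grown under 16-h light at 29.5/26.7 °C day/night.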

[14] = system: purple redstem (Ammannia coccinea); test: Test E flooded paddy water application; details: Flood, 21 days, scale 0 to 100 (0 no effect, 100 complete control)
In short: as §3

[15] = system: water seeded rice seedlings (Oryza sativa cv. ‘Japonica-M202’); test: Test E flooded paddy water application; details: Flood, 21 days, scale 0 to 100 (0 no effect, 100 complete control)
In short: as §3

[16] = system: early watergrass (Echinochloa oryzoides); test: Test E flooded paddy water application; details: Flood, 21 days, scale 0 to 100 (0 no effect, 100 complete control)
In short: as §3

[17] = system: bearded (brdd.) sprangletop (Leptochloa fusca ssp. fascicularis); test: Test E flooded paddy water application; details: Flood, 21 days, scale 0 to 100 (0 no effect, 100 complete control)
In short: as §3

[18] = system: smallflower umbrella sedge (Cyperus difformis); test: Test E flooded paddy water application; details: Flood, 21 days, scale 0 to 100 (0 no effect, 100 complete control)
In short: as §3

[19] = system: rice flatsedge (Cyperus iria); test: Test E flooded paddy water application; details: Flood, 21 days, scale 0 to 100 (0 no effect, 100 complete control)
In short: as §3

[20] = system: ducksalad (Heteranthera limosa); test: Test E flooded paddy water application; details: Flood, 21 days, scale 0 to 100 (0 no effect, 100 complete control)
In short: as §3

[21] = Postemergence, 125 g ai/ha, 0 to 100 scale (0 no effect, 100 complete control)
[22] = Postemergence, 500 g ai/ha, 0 to 100 scale (0 no effect, 100 complete control)
[23] = Preemergence, 125 g ai/ha, 0 to 100 scale where 0 is no effect and 100 is complete control, approximately ten days
[24] = Preemergence, 500 g ai/ha, 0 to 100 scale where 0 is no effect and 100 is complete control, approximately ten days

## CCOC(=O)c1nc(-c2ccc(C(F)(F)F)cc2)nc(N)c1Br [Compound 60]
[1]; [21]
  Plant response rating, Velvetleaf: 30
[1]; [22]
  Plant response rating, Velvetleaf: 40
[1]; [23]
  Plant response rating, Velvetleaf: 0
[1]; [24]
  Plant response rating, Velvetleaf: 0
[2]; [21]
  Plant response rating, Barnyardgrass: 0
[2]; [22]
  Plant response rating, Barnyardgrass: 0
[2]; [23]
  Plant response rating, Barnyardgrass: 0
[2]; [24]
  Plant response rating, Barnyardgrass: 0
[3]; [21]
  Plant response rating, Pigweed: 10
[3]; [22]
  Plant response rating, Pigweed: 40
[3]; [23]
  Plant response rating, Pigweed: 0
[3]; [24]
  Plant response rating, Pigweed: 0
[4]; [21]
  Plant response rating, Crabgrass: 0
[4]; [22]
  Plant response rating, Crabgrass: 0
[4]; [23]
  Plant response rating, Crabgrass: 0
[4]; [24]
  Plant response rating, Crabgrass: 0
[5]; [21]
  Plant response rating, Foxtail, Giant: 0
[5]; [22]
  Plant response rating, Foxtail, Giant: 0
[5]; [23]
  Plant response rating, Foxtail, Giant: 0
[5]; [24]
  Plant response rating, Foxtail, Giant: 0
[6]; [21]
  Plant response rating, Morningglory: 0
[6]; [22]
  Plant response rating, Morningglory: 20
[6]; [23]
  Plant response rating, Morningglory: 0
[6]; [24]
  Plant response rating, Morningglory: 0
[7]; 125 g ai/ha
  Plant response rating, Barnyardgrass: 0
[7]; 500 g ai/ha
  Plant response rating, Barnyardgrass: 20
Rice (Oryza sativa); 125 g ai/ha
  Plant response rating, Rice: 0
Rice (Oryza sativa); 500 g ai/ha
  Plant response rating, Rice: 0
[8]; 125 g ai/ha
  Plant response rating, Sedge, Umbrella: 0
[8]; 500 g ai/ha
  Plant response rating, Sedge, Umbrella: 30
[9]; 125 g ai/ha
  Plant response rating, Ducksalad: 80
[9]; 500 g ai/ha
  Plant response rating, Ducksalad: 90

## Nc1nc(C2CC2)nc(C(=O)OCc2ccc(Cl)cc2)c1Cl [Compound 80]
[1]; [21]
  Plant response rating, Velvetleaf: 65
[1]; [22]
  Plant response rating, Velvetleaf: 90
[1]; [23]
  Plant response rating, Velvetleaf: 75
[1]; [24]
  Plant response rating, Velvetleaf: 90
[2]; [21]
  Plant response rating, Barnyardgrass: 55
[2]; [22]
  Plant response rating, Barnyardgrass: 90
[2]; [23]
  Plant response rating, Barnyardgrass: 10
[2]; [24]
  Plant response rating, Barnyardgrass: 80
[3]; [21]
  Plant response rating, Pigweed: 65
[3]; [22]
  Plant response rating, Pigweed: 95
[3]; [23]
  Plant response rating, Pigweed: 80
[3]; [24]
  Plant response rating, Pigweed: 90
[4]; [21]
  Plant response rating, Crabgrass: 30
[4]; [22]
  Plant response rating, Crabgrass: 70
[4]; [23]
  Plant response rating, Crabgrass: 45
[4]; [24]
  Plant response rating, Crabgrass: 85
[5]; [21]
  Plant response rating, Foxtail, Giant: 70
[5]; [22]
  Plant response rating, Foxtail, Giant: 90
[5]; [23]
  Plant response rating, Foxtail, Giant: 15
[5]; [24]
  Plant response rating, Foxtail, Giant: 70
[6]; [21]
  Plant response rating, Morningglory: 90
[6]; [22]
  Plant response rating, Morningglory: 95
[6]; [23]
  Plant response rating, Morningglory: 90
[6]; [24]
  Plant response rating, Morningglory: 100
[7]; 125 g ai/ha
  Plant response rating, Barnyardgrass: 0
[7]; 500 g ai/ha
  Plant response rating, Barnyardgrass: 50
Rice (Oryza sativa); 125 g ai/ha
  Plant response rating, Rice: 0
Rice (Oryza sativa); 500 g ai/ha
  Plant response rating, Rice: 50
[8]; 125 g ai/ha
  Plant response rating, Sedge, Umbrella: 20
[8]; 500 g ai/ha
  Plant response rating, Sedge, Umbrella: 70
[9]; 125 g ai/ha
  Plant response rating, Ducksalad: 50
[9]; 500 g ai/ha
  Plant response rating, Ducksalad: 70

## Nc1nc(-c2ccc(Cl)cc2)nc(C(=O)OCc2ccccc2)c1Cl [Compound 118]
[1]; [21]
  Plant response rating, Velvetleaf: 90
[1]; [22]
  Plant response rating, Velvetleaf: 95
[1]; [23]
  Plant response rating, Velvetleaf: 0
[1]; [24]
  Plant response rating, Velvetleaf: 15
[2]; [21]
  Plant response rating, Barnyardgrass: 0
[2]; [22]
  Plant response rating, Barnyardgrass: 0
[2]; [23]
  Plant response rating, Barnyardgrass: 0
[2]; [24]
  Plant response rating, Barnyardgrass: 10
[3]; [21]
  Plant response rating, Pigweed: 60
[3]; [22]
  Plant response rating, Pigweed: 75
[3]; [23]
  Plant response rating, Pigweed: 10
[3]; [24]
  Plant response rating, Pigweed: 55
[4]; [21]
  Plant response rating, Crabgrass: 10
[4]; [22]
  Plant response rating, Crabgrass: 20
[4]; [23]
  Plant response rating, Crabgrass: 10
[4]; [24]
  Plant response rating, Crabgrass: 25
[5]; [21]
  Plant response rating, Foxtail, Giant: 0
[5]; [22]
  Plant response rating, Foxtail, Giant: 15
[5]; [23]
  Plant response rating, Foxtail, Giant: 0
[5]; [24]
  Plant response rating, Foxtail, Giant: 15
[6]; [21]
  Plant response rating, Morningglory: 65
[6]; [22]
  Plant response rating, Morningglory: 70
[6]; [23]
  Plant response rating, Morningglory: 0
[6]; [24]
  Plant response rating, Morningglory: 0
[10]; 32 g ai/ha
  Barnyardgrass plant response rating: 0
[10]; 64 g ai/ha
  Barnyardgrass plant response rating: 0
[10]; 125 g ai/ha
  Barnyardgrass plant response rating: 0
[10]; 250 g ai/ha
  Barnyardgrass plant response rating: 0
[10]; 16 g ai/ha
  Plant response rating, Barnyardgrass: 0
[11]; 32 g ai/ha
  Junglerice plant response rating: 40
[11]; 64 g ai/ha
  Junglerice plant response rating: 45
[11]; 125 g ai/ha
  Junglerice plant response rating: 65
[11]; 250 g ai/ha
  Junglerice plant response rating: 65
[11]; 16 g ai/ha
  Plant response rating, Junglerice: 0
[12]; 32 g ai/ha
  Watergrass, Late plant response rating: 0
[12]; 64 g ai/ha
  Watergrass, Late plant response rating: 0
[12]; 125 g ai/ha
  Watergrass, Late plant response rating: 0
[12]; 250 g ai/ha
  Watergrass, Late plant response rating: 0
[12]; 16 g ai/ha
  Plant response rating, Watergrass, Late: 0
[13]; 32 g ai/ha
  Rice, Transplanted plant response rating: 0
[13]; 64 g ai/ha
  Rice, Transplanted plant response rating: 0
[13]; 125 g ai/ha
  Rice, Transplanted plant response rating: 0
[13]; 250 g ai/ha
  Rice, Transplanted plant response rating: 0
[13]; 16 g ai/ha
  Plant response rating, Rice, Transplanted: 0
[14]; 32 g ai/ha
  Redstem plant response rating: 20
[14]; 64 g ai/ha
  Redstem plant response rating: 30
[14]; 125 g ai/ha
  Redstem plant response rating: 50
[14]; 250 g ai/ha
  Redstem plant response rating: 85
[14]; 16 g ai/ha
  Plant response rating, Redstem: 0
[15]; 32 g ai/ha
  Rice, Water Seeded plant response rating: 0
[15]; 64 g ai/ha
  Rice, Water Seeded plant response rating: 0
[15]; 125 g ai/ha
  Rice, Water Seeded plant response rating: 0
[15]; 250 g ai/ha
  Rice, Water Seeded plant response rating: 0
[15]; 16 g ai/ha
  Plant response rating, Rice, Water Seeded: 0
[16]; 32 g ai/ha
  Watergrass, Early plant response rating: 0
[16]; 64 g ai/ha
  Watergrass, Early plant response rating: 0
[16]; 125 g ai/ha
  Watergrass, Early plant response rating: 0
[16]; 250 g ai/ha
  Watergrass, Early plant response rating: 0
[16]; 16 g ai/ha
  Plant response rating, Watergrass, Early: 0
[17]; 32 g ai/ha
  Sprangletop, Brdd. plant response rating: 0
[17]; 64 g ai/ha
  Sprangletop, Brdd. plant response rating: 0
[17]; 125 g ai/ha
  Sprangletop, Brdd. plant response rating: 70
[17]; 250 g ai/ha
  Sprangletop, Brdd. plant response rating: 85
[17]; 16 g ai/ha
  Plant response rating, Sprangletop, Brdd.: 0
[18]; 32 g ai/ha
  Sedge, Umbrella plant response rating: 95
[18]; 64 g ai/ha
  Sedge, Umbrella plant response rating: 100
[18]; 125 g ai/ha
  Sedge, Umbrella plant response rating: 100
[18]; 250 g ai/ha
  Sedge, Umbrella plant response rating: 100
[18]; 16 g ai/ha
  Plant response rating, Sedge, Umbrella: 85
[19]; 32 g ai/ha
  Flatsedge, Rice plant response rating: 95
[19]; 64 g ai/ha
  Flatsedge, Rice plant response rating: 95
[19]; 125 g ai/ha
  Flatsedge, Rice plant response rating: 95
[19]; 250 g ai/ha
  Flatsedge, Rice plant response rating: 100
[19]; 16 g ai/ha
  Plant response rating, Flatsedge, Rice: 85
[20]; 32 g ai/ha
  Ducksalad plant response rating: 100
[20]; 64 g ai/ha
  Ducksalad plant response rating: 100
[20]; 125 g ai/ha
  Ducksalad plant response rating: 100
[20]; 250 g ai/ha
  Ducksalad plant response rating: 100
[20]; 16 g ai/ha
  Plant response rating, Ducksalad: 100
